This passage reports Activity, inhibition in vivo and inhibition results from ChEMBL document CHEMBL5038615, “Discovery of a cinnamyl piperidine derivative as new neddylation inhibitor for gastric cancer treatment” (Eur J Med Chem, 2021).

Active and inactive are the calls of the source. No cut-off for these calls is given here.

The subject of assay [1] is MGC-803. In words: Antiproliferative activity against human MGC-803 cells assessed as inhibition of cell proliferation at 0.39 to 50 uM measured upto 72 hrs by MTT assay. It is filed as functional, cell-based. Particulars: dose 0.39-50 µM, time hrs <=72.
In assay [2] the test system is MGC-803. Briefly: Cell cycle arrest in human MGC-803 cells assessed as accumulation of cells at G2/M phase at 2.5 uM measured after 24 hrs by Flowcytometry assay (reference value: 13.71%). It is filed as functional.
Assay [3] deals with MGC-803. Briefly: Inhibition of cell migration in human MGC-803 cells at 1.25 to 5 uM measured after 24 to 48 hrs by wound healing assay based inverted microscopic analysis. It counts as functional. The note with it: dose 1.25-5 µM, time 24-48 hrs.
The test system of assay [4] is MGC-803. In words: Induction of apoptosis in human MGC-803 cells assessed as necrotic cells at 2.5 uM measured after 24 hrs by AnnexinV/FITC staining based flow cytometry method (reference value: 1.9%). It counts as functional. On the technique in general: In flow cytometry, cells or beads pass a laser one at a time.
In assay [5] the test system is MGC-803. Briefly: Induction of apoptosis in human MGC-803 cells assessed as early apoptotic cells at 7.5 uM measured after 48 hrs by AnnexinV/FITC staining based flow cytometry method (reference value: 1.5%). It counts as functional.
Assay [6] concerns HGC-27. Briefly: Induction of apoptosis in human HGC-27 cells assessed as late apoptotic cells at 9 uM measured after 24 hrs by AnnexinV/FITC staining based flow cytometry method (reference value: 2.4%). It counts as functional.
Assay [7] deals with HGC-27. In words: Induction of apoptosis in human HGC-27 cells assessed as early apoptotic cells at 6 uM measured after 48 hrs by AnnexinV/FITC staining based flow cytometry method (reference value: 5.8%). It counts as functional.
Assay [8] has as its system MGC-803. Briefly: Induction of apoptosis in human MGC-803 cells assessed as upregulation of Bax at 2.5 to 7.5 uM measured after 24 hrs by Western blot assay. It is filed as functional, cell-based. Particulars: dose 2.5-7.5 µM.
The subject of assay [9] is MGC-803. In words: Induction of apoptosis in human MGC-803 cells assessed as ROS levels at 5 uM measured after 24 hrs by DCFH-DA staining based flow cytometry assay (reference value: 3.3%). It counts as functional.
Assay [10] relates to HGC-27. Briefly: Induction of apoptosis in human HGC-27 cells assessed as ROS levels at 9 uM measured after 24 hrs by DCFH-DA staining based flow cytometry assay (reference value: 6.8%). It is filed as functional.
Assay [11] has as its system MGC-803. In words: Antitumour activity against human MGC-803 cells xenografted in NOD-SCID mouse assessed as reduction on tumour growth at 100 mg/kg/day, IG measured after 21 days relative to control. It is filed as functional. Particulars: MGC-803, po, 504 h, time 21 day, read-out: TGI. Background: Xenograft models place foreign cells or tissue in a host animal.
Assay [12] deals with T1, NEDD8-activating enzyme E1 regulatory subunit (Homo sapiens) (UniProt Q13564).
T1 sequence (whole entry): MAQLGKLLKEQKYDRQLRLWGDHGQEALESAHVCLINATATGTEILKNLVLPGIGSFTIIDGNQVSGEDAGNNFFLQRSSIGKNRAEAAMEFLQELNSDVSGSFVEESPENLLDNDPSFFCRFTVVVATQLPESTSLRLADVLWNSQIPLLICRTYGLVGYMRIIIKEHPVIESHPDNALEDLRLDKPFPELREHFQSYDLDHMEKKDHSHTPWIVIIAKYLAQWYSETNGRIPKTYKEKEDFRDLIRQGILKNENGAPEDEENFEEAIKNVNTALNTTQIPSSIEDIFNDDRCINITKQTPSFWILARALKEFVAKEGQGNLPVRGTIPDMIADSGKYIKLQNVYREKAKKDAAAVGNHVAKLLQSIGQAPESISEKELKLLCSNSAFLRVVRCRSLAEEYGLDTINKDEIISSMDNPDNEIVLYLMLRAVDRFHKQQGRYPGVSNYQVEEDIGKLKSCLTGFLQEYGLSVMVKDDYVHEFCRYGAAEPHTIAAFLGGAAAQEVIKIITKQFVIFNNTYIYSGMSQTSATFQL
Briefly: Inhibition of NAE-mediated neddylation in human MGC-803 cells assessed as cullin1-Nedd8 adduct formation at 2.5 to 7.5 uM measured after 24 hrs by western blot assay. It is filed as cell-based. The note with it: dose 2.5-7.5 µM.

Consider `CCCCCc1ccc(NC(=O)C2CCN(C/C=C/c3ccccc3)CC2)cc1`, for which the Activity result is “Dose-Dependent Effect” in the assay on MGC-803 [1]; 17.77% with MGC-803 [2]; “Dose-Dependent Effect” in the assay with MGC-803 [3]; 0.8% in the assay with MGC-803 [4]; 4% in the assay with MGC-803 [5]; 74% in the assay on HGC-27 [6]. Moreover, the Activity was 32.2% with HGC-27 [7], “Dose-Dependent Effect” in the assay on MGC-803 [8], 5.4% in the assay on MGC-803 [9] and 25.7% in the assay on HGC-27 [10]. In addition, in the assay with MGC-803 [11], the inhibition in vivo at 100 mg/kg/day worked out at 39.2%. The inhibition result in assay [12] was “Active”.
